From US20180289620A1, “NANOPARTICLE FORMULATIONS AND USES THEREOF” (Abraxis BioScience, LLC, priority 2008, published 2018)
Where two headings read alike, the source gives them in different places.

Legend:
[1] = tested on: MX-1 (human breast carcinoma) cells; assay: In vitro growth inhibition (cytotoxicity, CellTiter Blue Cell Viability Assay); type: cell-based; conditions: cells exposed 72 hr
Description: A cytotoxicity assay was quantitated using the Promega CellTiter Blue Cell Viability Assay. Briefly, cells (5000 cells/well) were plated onto 96-well microtiter plates in RPMI 1640 medium supplemented with 10% FBS and incubated at 37° C. in a humidified 5% CO2 atmosphere. After 24 hr., cells were exposed to various concentrations of hydrophobic taxane derivative in DMSO and cultured for another 72 hr, 100 uL of media were removed and 20 uL of Promega CellTiter Blue reagent were added to each well and shaken to mix. After 4 hours of incubation at 37° C. in a humidified 5% CO2 atmosphere, the plates were read at 544 ex/620 em. The fluorescence produced is proportional to the number of viable cells. After plotting fluorescence produced against drug concentration, the IC50 was calculated as the […] of the resulting non-linear regression.

[2] = Log P of hydrophobic taxane derivatives; type: physicochemical; conditions: method not stated
[3] = Pharmacokinetics of Nab-2 in monkeys; type: in vivo; conditions: cynomolgus monkey; for AUCINF/D / Cmax/D / HL_Lambda_z / AUC(0-inf) / Cmax / Tmax / concentration at 0 hr / concentration at […] / concentration at 0.25 hr / concentration at 0.5 hr / concentration at 1 hr / concentration at 2 hr / concentration at 8 hr: label = analyte; for clearance / AUC(0-inf) / Cmax / Tmax / concentration at 0 hr / concentration at […] / concentration at 0.25 hr / concentration at 0.5 hr / concentration at 1 hr / concentration at 2 hr / concentration at 8 hr / Vd: male, blood; for concentration at […]: time 0.083 hr; for Vd: iv
From the text: The day of the initial dose administration was designated Study Day 1, with subsequent days consecutively numbered. Days on study prior to the initial dose administration were consecutively numbered with the final day of acclimation referenced as day −1.
Three non-naïve, male cynomolgus monkeys, confirmed to have no prior exposure to albumin, were assigned to dose groups as specified in Table 6 shown below. Animals weighed 5.4-6.7 kg and were 4 to 7 years of age at study initiation.
All animals were dosed once weekly, on days 1, 8 and 15. Animals in Groups 3 and 4 were administered Nab-2 (lot: ABI139-2-83) at 5 and 10 mg/kg, respectively, and the Group 5 animal was administered Nab-2 at 20, 10 and 10 mg/kg (on days 1, 8 and 15, respectively) via 30 minute intravenous infusion. Clinical observations were performed twice daily and body weights were recorded weekly throughout the study.

## CCCCCC(=O)O[C@@H](C(=O)O[C@H]1C[C@@]2(O)[C@@H](OC(=O)c3ccccc3)C3[C@](C)(C(=O)[C@H](O)C(=C1C)C2(C)C)[C@@H](O)C[C@H]1OC[C@@]31OC(C)=O)[C@@H](NC(=O)OC(C)(C)C)c1ccccc1 (stereo partly shown) [Compound 2, 2′-Hexanoyl Docetaxel]
[1]
  IC50: 103 µM
[2]
  logP: 6.44
[3]; Nab-2 IV 5 mg/kg
  AUCINF/D: 723 kg·ng·h/mL/mg
  Cmax/D: 215 kg·ng/mL/mg
  HL_Lambda_z: 3.6 h
  clearance: 23.1 mL/min/kg
  AUC(0-inf): 3610 ng·h/mL
  Cmax: 1070 ng/mL
  Tmax: 4.98 min
  concentration at 0 hr: 0 ng/mL
  concentration at […]: 1070 ng/mL
  concentration at 0.25 hr: 940 ng/mL
  concentration at 0.5 hr: 774 ng/mL
  concentration at 1 hr: 534 ng/mL
  concentration at 2 hr: 422 ng/mL
  concentration at 8 hr: 136 ng/mL
[3]; Nab-2 IV 10 mg/kg
  AUCINF/D: 535 kg·ng·h/mL/mg
  Cmax/D: 155 kg·ng/mL/mg
  HL_Lambda_z: 3.7 h
  clearance: 31.2 mL/min/kg
  AUC(0-inf): 5350 ng·h/mL
  Cmax: 1550 ng/mL
  Tmax: 4.98 min
  concentration at 0 hr: 0 ng/mL
  concentration at […]: 1550 ng/mL
  concentration at 0.25 hr: 1300 ng/mL
  concentration at 0.5 hr: 936 ng/mL
  concentration at 1 hr: 734 ng/mL
  concentration at 2 hr: 657 ng/mL
  concentration at 8 hr: 202 ng/mL
[3]; Nab-2 IV 20 mg/kg
  AUCINF/D: 393 kg·ng·h/mL/mg
  Cmax/D: 131 kg·ng/mL/mg
  HL_Lambda_z: 3.0 h
  clearance: 42.4 mL/min/kg
  AUC(0-inf): 7860 ng·h/mL
  Cmax: 2620 ng/mL
  Tmax: 15 min
  concentration at 0 hr: 0 ng/mL
  concentration at […]: 2390 ng/mL
  concentration at 0.25 hr: 2620 ng/mL
  concentration at 0.5 hr: 1820 ng/mL
  concentration at 1 hr: 1370 ng/mL
  concentration at 2 hr: 958 ng/mL
  concentration at 8 hr: 264 ng/mL
[3]; 5 mg/kg, Nab-2 IV 5 mg/kg, read-out: Vss
  Vd: 5.84 L/kg
[3]; 5 mg/kg, Nab-2 IV 5 mg/kg, read-out: Vz
  Vd: 7.18 L/kg
[3]; 10 mg/kg, Nab-2 IV 10 mg/kg, read-out: Vss
  Vd: 8.12 L/kg
[3]; 10 mg/kg, Nab-2 IV 10 mg/kg, read-out: Vz
  Vd: 9.93 L/kg
[3]; 20 mg/kg, Nab-2 IV 20 mg/kg, read-out: Vss
  Vd: 8.74 L/kg
[3]; 20 mg/kg, Nab-2 IV 20 mg/kg, read-out: Vz
  Vd: 11.2 L/kg
[3]; Nab-2 IV 5-20 mg/kg, read-out: volume of distribution Vz
  Vd: 7 to 11 L/kg

## CCCCC(=O)O[C@@H](C(=O)O[C@H]1C[C@@]2(O)[C@@H](OC(=O)c3ccccc3)C3[C@](C)(C(=O)[C@H](O)C(=C1C)C2(C)C)[C@@H](O)C[C@H]1OC[C@@]31OC(C)=O)[C@@H](NC(=O)OC(C)(C)C)c1ccccc1 (stereo partly shown) [Compound 4, 2′-Valeryl-Docetaxel]
[1]
  IC50: 211 µM
[2]
  logP: 6.37

## CC(=O)O[C@@]12CO[C@@H]1C[C@H](O)[C@@]1(C)C(=O)[C@H](O)C3=C(C)[C@@H](OC(=O)[C@H](OC(=O)c4ccccc4)[C@@H](NC(=O)OC(C)(C)C)c4ccccc4)C[C@@](O)([C@@H](OC(=O)c4ccccc4)C12)C3(C)C (stereo partly shown) [Compound 1, 2′-Benzoyl-Docetaxel]
[1]
  IC50: 38.4 µM
[2]
  logP: 6.67
